Assay results reported in patent US8252832B2, “Kinesin inhibitors as cancer therapeutics” (Novartis AG, priority 2007, dated 2012).
Read-outs that look alike come from different tables or passages of the source.

System: panel of cell lines derived from hematological malignancies
Experiment: Cell survival assay, CellTiter-Glo readout after 48 hours, hematological panel
Assay type: cell-based
Parameters: key to Differential: panel average log(GI50) minus cell line log(GI50); positive = more sensitive
Procedure: Compound IIa was tested against a panel of cell lines derived from hematological malignancies in a cell survival assay using CellTiter-Glo® as a readout after 48 hours in the presence of compound. Table 18 lists the type of hematological malignancy, the name of the sample, its GI50 (concentration needed to achieve 50% growth inhibition) value in the assay, the logarithm of the GI50 (log(GI50), and the relative sensitivity of each sample (Differential). The differential is calculated by subtracting the log(GI50) for each cell line from the average log(GI50) across the entire panel (0.236 in this case); a positive value indicates a sample that is more sensitive than average, whereas a negative value indicates a sample that is less sensitive than average.

CC(C)(C)[C@H](c1nc(-c2cc(F)ccc2F)cn1Cc1ccccc1)N(CC[C@H](N)CF)C(=O)CO [Compound IIa]
GI50 (Homo sapiens, MM1.S, 48 h, MM1-S (MM), read-out: GI50): 0.24 nM | GI50 (Homo sapiens, MM1.S, 48 h, MM1-S (MM), read-out: Log(GI50) (converted)): 0.24 nM | GI50 (Homo sapiens, MOLT-3, 48 h, MOLT-3 (ALL), read-out: GI50): 0.34 nM | GI50 (Homo sapiens, MOLT-3, 48 h, MOLT-3 (ALL), read-out: Log(GI50) (converted)): 0.335 nM | GI50 (Homo sapiens, MOLT-4, 48 h, MOLT-4 (ALL), read-out: GI50): 0.33 nM | GI50 (Homo sapiens, MOLT-4, 48 h, MOLT-4 (ALL), read-out: Log(GI50) (converted)): 0.331 nM | GI50 (Homo sapiens, MV4-11, 48 h, MV4, 11 (AML), read-out: GI50): 0.08 nM | GI50 (Homo sapiens, MV4-11, 48 h, MV4, 11 (AML), read-out: Log(GI50) (converted)): 0.0769 nM | GI50 (Homo sapiens, NALM-6, 48 h, NALM-6 (ALL), read-out: GI50): 0.14 nM | GI50 (Homo sapiens, NALM-6, 48 h, NALM-6 (ALL), read-out: Log(GI50) (converted)): 0.135 nM | GI50 (Homo sapiens, NCI-H929, 48 h, H929 (MM), read-out: GI50): 0.34 nM | GI50 (Homo sapiens, NCI-H929, 48 h, H929 (MM), read-out: Log(GI50) (converted)): 0.335 nM | GI50 (Homo sapiens, OPM-2, 48 h, OPM2 (MM), read-out: GI50): 0.14 nM | GI50 (Homo sapiens, OPM-2, 48 h, OPM2 (MM), read-out: Log(GI50) (converted)): 0.135 nM | GI50 (Homo sapiens, RPMI-8226, 48 h, RPMI8226 (MM), read-out: GI50): 0.26 nM | GI50 (Homo sapiens, RPMI-8226, 48 h, RPMI8226 (MM), read-out: Log(GI50) (converted)): 0.262 nM | GI50 (Homo sapiens, RS4-11, 48 h, RS4, 11 (ALL), read-out: GI50): 0.1 nM | GI50 (Homo sapiens, RS4-11, 48 h, RS4, 11 (ALL), read-out: Log(GI50) (converted)): 0.1 nM | GI50 (Homo sapiens, Ramos, 48 h, Ramos (NHL), read-out: GI50): 0.16 nM | GI50 (Homo sapiens, Ramos, 48 h, Ramos (NHL), read-out: Log(GI50) (converted)): 0.16 nM | GI50 (Homo sapiens, SET-2, 48 h, SET-2 (AML), read-out: GI50): 0.34 nM | GI50 (Homo sapiens, SET-2, 48 h, SET-2 (AML), read-out: Log(GI50) (converted)): 0.34 nM | GI50 (Homo sapiens, SU-DHL-1, 48 h, SuDHL-1 (NHL), read-out: GI50): 10 nM | GI50 (Homo sapiens, SU-DHL-1, 48 h, SuDHL-1 (NHL), read-out: Log(GI50) (converted)): 10 nM | GI50 (Homo sapiens, SU-DHL-4, 48 h, SuDHL-4 (NHL), read-out: GI50): 0.45 nM | GI50 (Homo sapiens, SU-DHL-4, 48 h, SuDHL-4 (NHL), read-out: Log(GI50) (converted)): 0.447 nM | GI50 (Homo sapiens, SU-DHL-6, 48 h, SuDHL-6 (NHL), read-out: GI50): 0.16 nM | GI50 (Homo sapiens, SU-DHL-6, 48 h, SuDHL-6 (NHL), read-out: Log(GI50) (converted)): 0.16 nM | GI50 (Homo sapiens, SUP-B15, 48 h, SUP-B15 (ALL), read-out: GI50): 0.19 nM | GI50 (Homo sapiens, SUP-B15, 48 h, SUP-B15 (ALL), read-out: Log(GI50) (converted)): 0.19 nM | GI50 (Homo sapiens, SUP-T1, 48 h, SUP-T1 (NHL), read-out: GI50): 5.57 nM | GI50 (Homo sapiens, SUP-T1, 48 h, SUP-T1 (NHL), read-out: Log(GI50) (converted)): 5.57 nM | GI50 (Homo sapiens, U-937, 48 h, U937 (NHL), read-out: GI50): 0.2 nM | GI50 (Homo sapiens, U-937, 48 h, U937 (NHL), read-out: Log(GI50) (converted)): 0.2 nM | Differential (HuT78 (NHL)): 0.195 | Differential (INA-6 (MM)): 0.555 | GI50 (INA-6, 48 h, INA-6 (MM), read-out: GI50): 0.12 nM | GI50 (INA-6, 48 h, INA-6 (MM), read-out: Log(GI50) (converted)): 0.12 nM | Differential (K562 (CML)): 0.314 | Differential (KM-H2 (HL)): 0.266 | Differential (KMS11 (MM)): −0.050 | Differential (KMS11-Luc (MM)): 0.172 | Differential (KMS12 (MM)): 0.172 | Differential (KMS18-Luc (MM)): −0.080 | Differential (KMS26 (MM)): 0.254 | GI50 (KMS-26, 48 h, KMS26 (MM), read-out: GI50): 0.24 nM | GI50 (KMS-26, 48 h, KMS26 (MM), read-out: Log(GI50) (converted)): 0.24 nM | Differential (Karpas-299 (NHL)): 0.333 | Differential (Karpas-299-Luc (NHL)): −1.671 | Differential (Karpas-422 (NHL)): −1.077 | Differential (Kasumi-1 (AML)): −0.010 | Differential (L363 (MM)): 0.520 | Differential (L428 (HL)): −1.667 | Differential (L-1236 (HL)): −0.930 | GI50 (L-1236, 48 h, L-1236 (HL), read-out: GI50): 3.67 nM | GI50 (L-1236, 48 h, L-1236 (HL), read-out: Log(GI50) (converted)): 3.66 nM | Differential (LP1 (MM)): 0.322 | Differential (MHH-CALL-2 (ALL)): 0.136 | Differential (MHH-CALL-3 (ALL)): 0.333 | Differential (MHH-CALL-4 (ALL)): −1.366 | GI50 (MHHCALL4, 48 h, MHH-CALL-4 (ALL), read-out: GI50): 10 nM | GI50 (MHHCALL4, 48 h, MHH-CALL-4 (ALL), read-out: Log(GI50) (converted)): 10 nM | Differential (MM1-S (MM)): 0.254 | Differential (MM1-S-Luc (MM)): 0.272 | Differential (MOLM13-Luc (AML)): 0.279 | Differential (MOLT-3 (ALL)): 0.109 | Differential (MOLT-4 (ALL)): 0.114 | Differential (MUTZ-5 (ALL)): −1.366 | Differential (MV4, 11 (AML)): 0.747 | Differential (MV4, 11Luc (AML)): 0.613 | Differential (NALM-6 (ALL)): 0.504 | Differential (NALM-19 (ALL)): 0.355 | Differential (OPM2 (MM)): 0.504 | Differential (REH (ALL)): 0.379 | Differential (RL (NHL)): −1.667 | Differential (RPMI8226 (MM)): 0.216 | Differential (RS4, 11 (ALL)): 0.634 | Differential (Ramos (NHL)): 0.430 | Differential (SEM-Luc (ALL)): 0.458 | Differential (SET-2 (AML)): 0.102 | Differential (SR (NHL)): 0.591 | Differential (SUP-B15 (ALL)): 0.355 | Differential (SUP-M2 (NHL)): 0.379 | GI50 (SUP-M2, 48 h, SUP-M2 (NHL), read-out: GI50): 0.18 nM | GI50 (SUP-M2, 48 h, SUP-M2 (NHL), read-out: Log(GI50) (converted)): 0.18 nM | Differential (SUP-T1 (NHL)): −1.112 | Differential (SuDHL-1 (NHL)): −1.366 | Differential (SuDHL-4 (NHL)): −0.016 | Differential (SuDHL-6 (NHL)): 0.430 | Differential (TANOUE (ALL)): −1.366 | Differential (U937 (NHL)): 0.333 | GI50 (UKE1, 48 h, UKE-1 (AML), read-out: GI50): 0.18 nM | GI50 (UKE1, 48 h, UKE-1 (AML), read-out: Log(GI50) (converted)): 0.175 nM | Differential (UKE-1 (AML)): 0.391 | Differential (YT (ALL)): −1.366
